Measured values reported in US20230146233A1, “A CLASS OF POLYCYCLIC COMPOUNDS INHIBITING RNA HELICASE DHX33 AND THE APPLICATION THEREOF” (Shenzhen KeYe Life Technologies, Co., Ltd, priority 2020, published 2023).
pIC50: −log10 of the molar value.

What follows are compounds tested on U251-MG cells (assay: Half-maximal cell-inhibitory concentration on U251-MG cells (CCK-8)). Conditions: Homo sapiens, U-251, U251-MG cells (DHX33-overexpressing cancer cell strain), 48 hours, read-out: IC50 (half-maximal inhibitory concentrations of compounds on U251-MG cells).
Type: cell-based
Experimental: U251-MG cells were purchased from the cell bank of the Chinese Academy of Sciences. Cells were cultured in MEM medium containing 10% fetal bovine serum (FBS), 2 mM L-glutammie, streptomycmn and penicillin. The growth conditions were set as follows: a humidified cell incubator (37° C., 5% CO2). Cells were passaged every 3 days and were discarded after 10 passages.
U251-MG cells (a […]-overexpressing cancer cell strain) were seeded on a 96-well plate at 1×10^4 cells/100 μl/well. After the cells were completely attached, the compounds were added to the cell culture medium at a concentration of 5 nM, 10 nM, 25 nM, 50 nM, 100 nM, […], 500 nM, 1000 nM, 2000 nM, […] or 20 μM, and the resulting mixture was uniformly mixed with a multichannel pipette. After the cells were incubated with the compound for 48 hours, CCK-8 reagent (Yeasen Biotechnology (Shanghai) Co., Ltd.) was added to the medium in the 96-well plate in accordance with the standard procedure. After being incubated for 2 hours, the plate was read with a microplate reader (OD=450 nm). The experiment was repeated three times, the inhibition curve of the compound at different concentrations was plotted, and the half-maximal inhibitory concentration (IC50) of the compound was calculated.

| Structure (SMILES) | pIC50 |
| --- | --- |
| Cc1oc(-n2c(C)cc(/C=C(\C#N)c3nc4ccc(Cl)cc4[nH]3)c2C)c(C#N)c1C [AB24201, (E)-2-(3-(2-(6-chloro-1H-benzo[d]imidazol-2-yl)-2-cyanovinyl)-2,5-dimethyl-1H-pyrrol-1-yl)-4,5-dimethylfuran-3-carbonitrile] | 5.30 to 6.00 |
| Cc1oc(-n2c(C)cc(/C=C(\C#N)c3nc4ccc(Br)cc4[nH]3)c2C)c(C#N)c1C [AB24213, (E)-2-(3-(2-(6-bromo-1H-benzo[d]imidazol-2-yl)-2-cyanovinyl)-2,5-dimethyl-1H-pyrrol-1-yl)-4,5-dimethylfuran-3-carbonitrile] | 5.30 to 6.00 |
| COc1ccc2nc3cc(-c4cc(C)n(-c5sc(C)cc5C#N)c4C)ccc3n2c1 [AB24385, 2-(3-(2-methoxybenzo[4,5]imidazo[1,2-a]pyridin-7-yl)-2,5-dimethyl-1H-pyrrol-1-yl)-5-methylthiophene-3-carbonitrile] | 5.30 to 6.00 |
| COc1ccnc2nc(/C(C#N)=C/c3cc(C)n(-c4sc(C)c(C)c4C#N)c3C)[nH]c12 [AB24310, (E)-2-(3-(2-cyano-2-(7-methoxy-1H-imidazo[4,5-b]pyridin-2-yl)vinyl)-2,5-dimethyl-1H-pyrrol-1-yl)-4,5-dimethylthiophene-3-carbonitrile] | 4.70 to 5.30 |
| Cc1oc(-n2c(C)cc(/C=C(\C#N)c3nc4ccc(C(=O)NCCN(C)C)cc4[nH]3)c2C)c(C#N)c1C [AB24206, (E)-2-(1-cyano-2-(1-(3-cyano-4,5-dimethylfuran-2-yl)-2,5-dimethyl-1H-pyrrol-3-yl)vinyl)-N-(2-(dimethylamino)ethyl)-1H-benzo[d]imidazole-6-carboxamide] | 5.30 to 6.00 |
| COc1cc2nc(/C(C#N)=C/c3cc(C)n(Cc4cnccn4)c3C)[nH]c2cn1 [AB29508, (E)-3-(2,5-dimethyl-1-(pyrazin-2-ylmethyl)-1H-pyrrol-3-yl)-2-(6-methoxy-3H-imidazo[4,5-c]pyridin-2-yl)acrylonitrile] | > 7.00 |
| COc1cc2nc(/C(C#N)=C/c3cc(C)n(-c4sc(C(C)(C)C)cc4C#N)c3C)[nH]c2cn1 [AB24326] | 6.00 to 7.00 |

Now from value to compound:

| pIC50 | Structure (SMILES) |
| --- | --- |
| 6.00 to 7.00 | COC(=O)c1nc(C)sc1-n1c(C)cc(/C=C(\C#N)c2nc3cc(OC)ncc3[nH]2)c1C [AB24345] |
| > 7.00 | COC(=O)c1cc(C)sc1-n1c(C)cc(/C=C(\C#N)c2nc3cc(OC)ncc3[nH]2)c1C [AB24311, methyl (E)-2-(3-(2-cyano-2-(6-methoxy-3H-imidazo[4,5-c]pyridin-2-yl)vinyl)-2,5-dimethyl-1H-pyrrol-1-yl)-5-methylthiophene-3-carboxylate] |
| 4.70 to 5.30 | COc1ccc2[nH]c3cc(-c4cc(C)n(-c5sc(C)cc5C#N)c4C)ccc3c2c1 [AB24375, 2-(3-(6-methoxy-9H-carbazol-2-yl)-2,5-dimethyl-1H-pyrrol-1-yl)-5-methylthiophene-3-carbonitrile] |
| 6.00 to 7.00 | COc1cc2nc(NC(=O)c3cc(C)n(-c4sc(C)nc4C#N)c3C)[nH]c2cn1 [AB29502, 1-(4-cyano-2-methylthiazol-5-yl)-N-(6-methoxy-3H-imidazo[4,5-c]pyridin-2-yl)-2,5-dimethyl-1H-pyrrole-3-carboxamide] |
| 6.00 to 7.00 | COc1ccc2nc(NC(=O)c3cc(C)n(-c4sc(C)nc4C#N)c3C)[nH]c2c1 [AB29509, 1-(4-cyano-2-methylthiazol-5-yl)-N-(6-methoxy-1H-benzo[d]imidazol-2-yl)-2,5-dimethyl-1H-pyrrole-3-carboxamide] |
| 4.70 to 5.30 | COc1ccc2nc(/C(C#N)=C/c3cc(C)n(-c4ccccc4C#N)c3C)[nH]c2c1 [AB24307, (E)-2-(3-(2-cyano-2-(6-methoxy-1H-benzo[d]imidazol-2-yl]vinyl)-2,5-dimethyl-1H-pyrrol-1-yl)benzonitrile] |
| > 7.00 | COc1cc2nc(/C(C#N)=C/c3cc(C)n(-c4sc(Br)cc4C#N)c3C)[nH]c2cn1 [AB24323, (E)-5-bromo-2-(3-(2-cyano-2-(6-methoxy-3H-imidazo[4,5-c]pyridin-2-yl)vinyl)-2,5-dimethyl-1H-pyrrol-1-yl)thiophene-3-carbonitrile] |
| 6.00 to 7.00 | COC(=O)c1cc(Cl)sc1-n1c(C)cc(/C=C(\C#N)c2nc3cc(OC)ncc3[nH]2)c1C [AR24318] |
